Assay results reported in patent US20170354645A1, “METHODS FOR TREATING KIDNEY DISORDERS” (Eli Lilly and Company, priority 2014, published 2017).

Assays:
[1] = tested on: mouse remnant kidney model; test: mouse remnant kidney model (5/6th nephrectomy) of chronic renal failure; type: in vivo; conditions: 10 mg/kg orally once daily
Description: The purpose of this assay is to analyze the compound of Formula I in a mouse chronic renal failure model, and particularly the ability to improve albuminuria and renal histopathological lesions. This assay is known as the mouse remnant kidney model, where following a unilateral nephrectomy, partial surgical removal of approximately ⅓ of the remaining kidney is carried out to replicate chronic renal failure. This model is sometimes also referred to as a “5/6th nephrectomy” model that was originally developed in rat. A description of this model may be found in published US patent application US 2014/0271675 (Qi, et al.) and (Leelahavanichkul, et al. (2010) Kidney Int. 78(11): 1136-1153.
Thirty-five eight to nine week old mice (strain 129/SvEv from Taconic) are employed in the model, and all have surgeries. A sham group having five mice have surgeries where the kidneys are not removed. The mice in the remaining two groups having fifteen mice each undergo remnant surgery. The surgeries take place approximately three weeks prior to the dosing portion of the study. The dosing portion of the study is 85 days long.
(§1) The oral vehicle for testing the compound of Formula I is 5% Kolliphor® HS 15, 5% EtOH, NaCMC 1%/SLS 0.5%/Antifoam 0.05%/Povidone 0.085% from Ricca Chemical Company. The sham group is fed a conventional diet (Purina Formulab Diet 5008) and is not dosed with vehicle or the compound of Formula I during the dosing portion of the study. One of the remaining two groups is orally dosed vehicle once daily (10 ml/kg), and the other group is orally dosed once daily with the compound of Formula I at 10 mg/kg, in vehicle. Both dosing groups receive a conventional diet (Purina Formulab Diet 5008) during the dosing portion of the study.
(§2) Spot urine samples are collected on day −7 prior to the dosing portion of the study. Urine samples are taken weekly during the dosing portion of the study. Body weights are measured on days 15, 29, 43, 57, 64, 71, and 78. Blood samples are taken at week 4 of the dosing portion of the study a well as at the study termination (day 84). At week 4 of the dosing portion of the study, the mean serum concentration of the compound of Formula I 24 hours after a 10 mg/kg dose is 49±66 ng/ml.

[2] = serum concentration in remnant kidney mice; type: in vivo; conditions: 129/SvEv, mouse, week 4 of dosing, 24 hours after a 10 mg/kg oral dose, once daily
Description: as §1, §2

[3] = renal morphology, compared with vehicle treatment

For `Cc1cc(OCc2c(-c3ccccc3OC(F)(F)F)noc2C2CC2)ccc1-c1ccc2c(C(=O)O)csc2c1` [compound of Formula I, 6-{4-[5-Cyclopropyl-3-(2-trifluoromethoxy-phenyl)-isoxazol-4-ylmethoxy]-2-methyl-phenyl}-benzo[b]thiophene-3-carboxylic acid], the “reduction in urine ACR (albumin/creatinine ratio)” value ([1]; remnant mice, observed within 2 weeks, persists through end of 85-day dosing) was 32-38%, the interstitial inflammation ([1]; renal morphology) was “mildly reduced” and the tubular regeneration ([1]; renal morphology) was “mildly reduced”. For the same compound, the “incidence and severity of glumerulosclerosis” value [1, 3] was “notably reduced”, the “incidence and severity of tubular protein” value [1, 3] was “notably reduced” and the “incidence of tubular changes (dilation, atrophy)” value [1, 3] was “reduced”. It also gave a concentration at 24 h [2] of 49 ± 66 ng/mL.
